Experimental data from patent US12552792B2, “Solid forms of an FGFR inhibitor and processes for preparing the same” (Incyte Corporation, priority 2018, dated 2026).

System: patients with myeloid/lymphoid neoplasms with FGFR1 rearrangement
Test: Phase 2 clinical study in myeloid/lymphoid neoplasms with FGFR1 rearrangement
Type: in vivo, human
Conditions: for evaluable patients who achieved clinical response: preliminary
Excerpt: All potential subjects must have documentation of an 8p11 translocation known to activate FGFR1 through the site's own cytogenetics laboratory. Once documentation has been provided, the subject undergoes screening to meet the rest of the inclusion/exclusion criteria.
One cycle is defined as 21 days of treatment.
The study population is subjects with myeloid/lymphoid neoplasms with FGFR1 rearrangement. […] In addition, only subjects who are not candidates for stem cell transplantation, or have relapsed after stem cell transplantation and […] lymphocyte infusion and who have progressed and are not candidates for other disease-modifying therapies are eligible for the study.
Additional key exclusion criteria include current evidence of clinically significant corneal disorder/keratopathy (including but not limited to bullous/band keratopathy, corneal abrasion, inflammation/ulceration, and keratoconjunctivitis, etc) or retinal disorder (including but not limited to macular/retinal degeneration, diabetic retinopathy, retinal detachment, etc) as confirmed by ophthalmologic examination.
Study visits may include sample collection for chemistry, hematology, coagulation, lipid panel, endocrine monitoring, and urinalysis testing. […] A sample of bone marrow aspirate or peripheral blood is sent to the central laboratory for confirmation of FGFR1 rearrangement as well as a central pathology laboratory for analysis. In addition, sites provide slides and/or digitized images of bone marrow aspirate at baseline and at the time of achieving response and send them to a central pathology group for review.
Once the subject's eligibility is confirmed through the site's laboratory, screening may begin. […] Safety follow-up is 30 days (+5 days) after the last dose of the study drug. In addition, subjects are followed for overall survival after stopping treatment with study drug. Study participation is expected to average approximately 6 months per individual subject.

## CCN1C(=O)N(c2c(F)c(OC)cc(OC)c2F)Cc2cnc3[nH]c(CN4CCOCC4)cc3c21 [Compound 1, 3-(2,6-difluoro-3,5-dimethoxyphenyl)-1-ethyl-8-(morpholin-4-ylmethyl)-1,3,4,7-tetrahydro-2H-pyrrolo[3′,2′:5,6]pyrido[4,3-d]pyrimidin-2-one]
13 evaluable patients, 13.5 mg QD
  evaluable patients who achieved clinical response: 85%
14 patients treated
  Treatment discontinued, reason: Adverse Event, number of patients: 2
14 patients, 13.5 mg QD
  TRAE alopecia, %: 29%
  TRAE diarrhea, %: 36%
  TRAE dyspepsia, %: 14%
  TRAE fatigue, %: 14%
  TRAE hyperphosphatemia, %: 64%
  TRAE increased blood alkaline phosphatase, %: 21%
  TRAE stomatitis, %: 14%
  patients with grade 3 TRAEs: Three
  tolerability (in words): generally well tolerated
14 patients, unrelated to treatment
  patients with fatal TEAEs: Two
Of 13 evaluable patients, 13.5 mg QD
  evaluable patients who achieved clinical response: 11 patients
person, myeloproliferation and TLL, ZMYM2-FGFR1 fusion, 13.5 mg daily 2 weeks on, 1 week off, at 4 months (beginning of cycle 6)
  response of single patient (PET scan, cytogenetics): complete cytogenetic remission and complete lymph node remission
